Laboratory results taken from patent publication US6339062B1, “Retroinverso polypeptides that mimic or inhibit thrombospondin activity” (Inkine Pharmaceutical Company, Inc., priority 1998, dated 2002).
Marks after values point to notes of the source that are not given here. Where no end group is shown, it is not given here. [ ]: non-standard residue; d: D form. The star is where a group is joined. Acm = CC(=O)NC*

Key:
[1] = test system: mouse B16-F10 melanoma cells; test: Tumor cell metastasis, one i.p. injection of peptide (Example 32); type: in vivo; details: 1 mg peptide i.p. once; 14 days; FIG. 21
Protocol: Mouse B16-F10 melanoma cells (75,000 ) were injected intravenously and was immediately followed by one intraperitoneal injection of 1 mg of peptide. Six animals were treated with each peptide. Animals were sacrificed 14 days later and lung colonies counted. The data shown in FIG. 21 represents the mean of lung colonies and the error bars represent the standard error of the mean. The peptides, d-Gly-Cys-(Acm)-Thr-Val-Ser-Cys-(Acm) (retroinverso) (SEQ ID NO: 35), and l-Cys-(Acm)-Ser-Val-Thr-Cys-(Acm)-Gly (SEQ ID NO: 6) inhibited metastasis by more than 80%, whereas d-Cys-Ser-Val-Thr-Cys-Gly (SEQ ID NO: 40) had no effect.

[2] = test system: mouse B16-F10 melanoma cells; test: Boyden chamber assay, TSP-1 mediated invasion of collagen (Examples 29, 30); type: cell-based; details: for dose-dependent effect on melanoma cell invasion: FIG. 19
Protocol: Cell invasion was investigated by the Boyden Chamber Invasion Assay using the modified Boyden chamber. T. Frandsen et al., Fibrinolysis, 6: 71-76 (1992). Polycarbonate filters, 12 μm pore size, e.g., Millicell, Millipore Corporation, Bedford, Ma, were coated with 100 μg Type IV collagen (1 mg/ml 60% EtOH) and dried overnight at 25° C. Blind-well Boyden chambers are filled with 600 μl of serum-free media containing 0.1% BSA in the lower compartment, and the coated filters will be mounted in the chamber. Approximately 50,000 cells (tested to be greater than 95% viable) suspended in 400 μl of the same media will be placed in the upper chamber of the apparatus and allowed to settle onto the collagen-coated membrane. Varying concentrations of TSP-1 (0-150 nM) will be placed in the lower compartment and any neutralizing antibodies as well as peptides will be placed in the upper chamber. After an incubation period of about 3 to 6 hours at 37° C., the cells on the upper surface of the filter will be removed with a cotton swab. The filters are then fixed in 3% glutaraldehyde solution and stained with 0.5% crystal violet solution. Invasive cells adhering to the under-surface of the filter are counted using a phase contrast microscope (400×).
Using this assay, mouse B16-F10 melanoma cells (50,000) were plated on the collagen-coated disk of the Boyden chamber apparatus. The top chamber contained melanoma cells in the presence of 500 μg/ml of the TSP-1 derived peptide and the bottom chamber contained 20 μg/ml TSP-1. After 6 hours, cells traversing the collagen were counted as cells attached to the underside of the collagen-coated disk. Five representative fields per chamber in duplicate were counted. The data shown in FIG. 18 represents the average per field and the error bars represent the standard deviation. The scrambled peptide, Val-Cys-Thr-Gly-Ser-Cys (SEQ ID NO: 7), the irrelevant peptide, Ala-Ser-Val-Thr-Ala-Arg (SEQ ID NO: 38), buffer, and the d-amino acid Cys-Ser-Val-Thr-Cys-Gly (SEQ ID NO: 40) had no effect on invasion.
The experiments were performed as described for Example 29. […] In contrast, d-Cys-Ser-Val-Thr-Cys-Gly (SEQ ID NO: 40) had no effect.

[3] = test system: mouse B16-F10 melanoma cells; test: Direct adhesion to dried peptide (Example 31); type: cell-based; details: 10 μg of each peptide; one hour; FIG. 20
Protocol: Peptide effect on direct adhesion was tested by drying 10 μg of each peptide on the bottom of a 96well microtiter plate. Plates were blocked with BSA. Mouse B16-F10 melanoma cells (50,000) were plated in each well and allowed to attach for one hour. Non-adherent cells were aspirated out, plates rinsed, and adherent cells were fixed, stained, and counted. The error bars represent the standard deviation.

[4] = test system: mouse B16-F10 melanoma cells; test: Melanoma lung metastasis, one bolus i.v. or i.p. (Example 22); type: in vivo; details: for blocking activity in metastasis and the other assays, peptide versus blocked analogue: mouse, in vivo
Protocol: One bolus injection of Cys-(Acm)-Ser-Val-Thr-Cys-(Acm)-Gly (SEQ ID NO: 6) peptide (1 mg/mouse intravenously or 5 mg/mouse intraperitoneally ) was administered followed by intravenous injection of mouse B16-F10 melanoma cells (100,000). Each treatment group consisted of 5 animals. After 10 days animals were sacrificed and lung tumors counted. […] Error bars represent the standard error of the mean. P values between control and peptide-treated groups <0.001.

[5] = test system: mouse B16-F10 melanoma cells; test: Melanoma lung metastasis, daily i.p. from day 3 after implantation (Example 23); type: in vivo, mice; details: daily i.p. for 10 days from day 3, FIG. 14
Protocol: Mice were intravenously injected with mouse B16-F10 melanoma cells (75,000). After 3 days, each mouse was treated daily by intraperitoneal injection with either PBS, 0.01 mg, or 1 mg of peptide for 10 days. Treatment groups consisted of 5 mice. After 10 days animals were sacrificed and lung tumors counted. Error bars represent the standard error of the mean. p<0.001 between control- and peptide-treated groups.

[6] = Stability toward oxidation; type: physicochemical; details: compared with unblocked peptide
rat aorta = test: Angiogenesis in serum-free collagen gel culture of rat aorta (Example 28); type: cell-based; details: compared to untreated control or scrambled peptide control; FIG. 17
Text: Error bars=SEM. Photo-micrograph (4× magnification) of a representative aortic ring culture treated either with Cys-Ser-Val-Thr-Cys-Gly (SEQ ID NO: 1) or Val-Cys-Thr-Gly-Ser-Cys (SEQ ID NO: 7) (FIG. 17B). The Cys-Ser-Val-Thr-Cys-Gly (SEQ ID NO: 1)-treated culture has fewer capillary outgrowths than the Val-Cys-Thr-Gly-Ser-Cys (SEQ ID NO: 7) scrambled peptide control.

washed human platelets = test: Collagen-induced platelet aggregation (Examples 9, 10); type: cell-based; details: 5 μg/ml collagen; various concentrations; FIG. 10
Protocol: Washed human platelets were suspended in HEPES-buffered saline, containing 5 mM glucose and 350 μg/ml BSA. 0.5 ml aliquots of platelets were aggregated by stirring with 5 μg/ml collagen in the presence of 500 μg/ml of various peptides. Aggregation was measured at 37° C. as decrease in optical absorbance vs. time in a Chrono-log aggregometer and is shown in FIG. 9. 100% aggregation was defined as the maximal decrease in absorbance measured in the absence of peptide. % of control was calculated as the decrease in absorbance measured in the presence of peptide divided by the decrease in absorbance measured in the absence of peptide times 100. Peptides are designated under each bar graph by their amino acid sequence represented using the one letter amino acid code.
Washed human platelets were suspended in HEPES-buffered saline, containing S mM glucose and 350 μg/ml BSA. […] Aggregation was measured at 37° C. as decrease in optical absorbance vs. time in a chrono-log aggregometer and is shown in FIG. 10. 100%; aggregation was defined as the maximal decrease in absorbance measured in the absence of peptide. % of control was calculated as the decrease in absorbance measured in the presence of peptide divided by the decrease in absorbance measured in the absence of peptide times 100.

[7] = test system: MMP-9 production in BAE cells; test: TSP-1-stimulated endothelial MMP-9 production (Example 27); type: cell-based
Protocol: BAE cells were treated with TSP-1 as described in Example 27. MMP-9 levels were quantitated from densitometry of the zymograms prepared from the BAE cell conditioned media. The control was 15 μg/ml TSP-1. All other treatments were performed in the presence of 15 μg/ml TSP-1.

[8] = test system: human MDA-MB-231 breast carcinoma cells; test: Athymic model of human tumor progression, peptide experiments (Example 24); type: in vivo, athymic mice
Protocol: To further evaluate the anti-metastatic properties of the Cys-Ser-Val-Thr-Cys-Gly (SEQ ID NO: 1) peptide, we measured the effect of peptide and antibody against the Cys-Ser-Val-Thr-Cys-Gly (SEQ ID NO: 1) receptor in an athymic model of human tumor progression. In this model, human MDA-MB-231 breast carcinoma cells were injected intraperitoneally in athymic mice. Animals were then treated with either peptide or receptor IgG for three weeks after which the extent of lung and liver metastasis is determined.
For the peptide experiments, eighteen mice were inoculated with MDA-MB-231 human breast cancer cells. After 72 hours, mice were randomized to treatment with every-other-day intraperitoneal injections of saline, scrambled peptide, or a Cys-Ser-Val-Thr-Cys-Gly (SEQ ID NO: 1) peptide for 20 days. One mouse treated with the Cys-Ser-Val-Thr-Cys-Gly (SEQ ID NO: 1) peptide expired after traumatic injection. Mice were sacrificed at 21 days. The peritoneal cavity was examined grossly for primary tumor implantation. The liver and lungs were examined histologically for micrometastases. Statistical analysis was performed by Chi-square analysis.

[9] = test system: mouse B16-F10 melanoma cells; test: Melanoma tumor cell metastasis, peptide i.v. (Example 21); type: in vivo, mice; details: 1 mg peptide i.v. shortly before or after tumor implantation; two weeks; FIG. 12
Text: Mice were sacrificed two weeks later and lung tumors counted. Treatment groups consisted of five animals. The photograph of FIG. 12 depicts three lungs from each treatment group. The black spots are melanoma tumors. All metastasis experiments were repeated 2-3 times showing qualitatively similar results depicted in the bar graph of FIG. 12.

[10] = i.p. every other day for 20 days, sacrificed at 21 days

Substance | inhibition of metastasis (lung colonies) [1] | inhibition of TSP-1 mediated invasion ([2]; 500 μg/ml peptide top chamber, 20 μg/ml TSP-1 bottom chamber, 6 hours, FIG. 18) | dose-dependent effect on melanoma cell invasion [2] | adhesion of cells to dried peptide [3] | blocking activity in metastasis and the other assays, peptide versus blocked analogue [4] | fewer lung metastasis as compared to saline or scrambled peptide controls ([4]; one bolus, 1 mg/mouse i.v. or 5 mg/mouse i.p., 10 days) [%] | large lung metastases ([4]; one bolus, 10 days) | reduction in lung colonies with respect to buffer-treated ([5]; 0.01 mg/ml-treated animals) [%] | suppression of melanoma colonies ([5]; 1 mg/ml treated animals) | stability toward oxidation [6] | angiogenesis (capillary outgrowths) (rat aorta) | collagen-induced platelet aggregation, dose response (washed human platelets) | % inhibition (MMP-9) ([7]; 0.20 mM, with 15 μg/ml TSP-1) [%] | Relative MMP-9 Levels ([7]; 0.20 mM, with 15 μg/ml TSP-1) | inhibited MMP-9 production ([7]; at high doses) [%] | in vivo breast cancer progression; metastases in the two organs examined ([8]; compared with saline or scrambled peptide groups) | intraperitoneal tumors ([8]; gross examination at 21 days) | Liver: no. of animals with metastases/total no. of animals [8, 10] | Lungs: no. of animals with metastases/total no. of animals [8, 10] | melanoma cell metastasis (lung tumors) [9]
[dC]SVTCG (cysteine pairing not given here) | no effect | no effect | no effect | did not promote adhesion |  |  |  |  |  |  |  |  |  |  |  |  |  |  |  | 
C(Acm)SVTC(Acm)G |  |  | same dose-dependent inhibition | half as well as fibronectin and TSP-1 | identical blocking activity | 80 | few large lung metastases | 27 | more than 80% | more stable toward oxidation |  |  |  |  |  |  |  |  |  | 
CSVTCG (cysteine pairing not given here) |  |  |  | half as well as fibronectin and TSP-1 | identical blocking activity |  |  |  |  |  | inhibited angiogenesis | inhibit collagen-induced platelet aggregation | 86 | 0.14 | 86 | significantly decreased metastases | fewer and smaller intraperitoneal tumors | 1/5* | 0/5 | significantly blocked
